ChEMBL document CHEMBL5154751, “Intramolecular Interactions Enhance the Potency of Gallinamide A Analogues against Trypanosoma cruzi” (J Med Chem, 2022)

Experiments:
[1] = Cytotoxicity against mouse C2C12 cells assessed as lethal dose; format: toxicity, cell-based; conditions: read-out: LD50 (the source's name)
Cruzipain = Cruzipain (Trypanosoma cruzi, UniProt P25779); test: Inhibition of Trypanosoma cruzi cruzain using Z-FR-AMC as substrate preincubated for 10 mins followed by substrate addition by fluorimetric analysis
Trypanosoma cruzi = test: Antitrypanosomal activity against amastigotes form of Trypanosoma cruzi CA-I/72 infected in mouse C2C12 cells assessed as parasite infection level by DAPI staining based microscopic analysis; format: functional, organism-based; conditions: CA-I/72, C2C12

Cruzipain, sequence (P25779 whole entry): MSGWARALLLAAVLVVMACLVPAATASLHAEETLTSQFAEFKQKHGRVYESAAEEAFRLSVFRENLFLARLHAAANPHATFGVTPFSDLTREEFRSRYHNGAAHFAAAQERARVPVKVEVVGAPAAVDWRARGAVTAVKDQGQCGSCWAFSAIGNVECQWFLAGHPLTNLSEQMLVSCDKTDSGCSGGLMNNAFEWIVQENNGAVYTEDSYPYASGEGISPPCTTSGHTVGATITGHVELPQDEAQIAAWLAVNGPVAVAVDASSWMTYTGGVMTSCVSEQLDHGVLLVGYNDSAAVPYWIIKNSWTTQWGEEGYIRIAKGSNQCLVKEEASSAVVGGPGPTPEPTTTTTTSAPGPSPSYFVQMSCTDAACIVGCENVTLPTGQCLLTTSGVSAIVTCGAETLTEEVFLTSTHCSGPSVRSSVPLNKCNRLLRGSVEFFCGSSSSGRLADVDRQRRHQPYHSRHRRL

## COC1=CC(=O)N(C(=O)/C=C/[C@@H](CCc2ccccc2)NC(=O)[C@H](CC(C)C)NC(=O)[C@H](CC(C)C)NC(=O)[C@H](C(C)C)N(C)C)C1Cc1ccc(-c2ccc3ccccc3c2)cc1 (some centres undefined)
[1]
  CC50: > 600 nM
Cruzipain
  IC50: 0.69 nM
Trypanosoma cruzi
  EC50: 59 nM

## COC1=CC(=O)N(C(=O)/C=C/[C@H](C)NC(=O)[C@H](CC(C)C)NC(=O)[C@H](CC2CCCCC2)NC(=O)C2CCN(C)CC2)[C@H]1Cc1c[nH]c2ccccc12
[1]
  CC50: > 600 nM

## COC1=CC(=O)N(C(=O)/C=C/[C@H](C)NC(=O)[C@H](CC2CCCCC2)NC(=O)[C@H](CC(C)C)NC(=O)C2CCN(C)CC2)[C@H]1Cc1c[nH]c2ccccc12
[1]
  CC50: > 600 nM

## COC1=CC(=O)N(C(=O)/C=C/[C@H](C)NC(=O)[C@H](CC2CCCCC2)NC(=O)[C@H](CC2CCCCC2)NC(=O)C2CCN(C)CC2)[C@H]1Cc1c[nH]c2ccccc12
[1]
  CC50: > 600 nM

## COC1=CC(=O)N(C(=O)/C=C/[C@H](C)NC(=O)[C@H](CC2CCCCC2)NC(=O)[C@H](CC(C)C)NC(=O)[C@H](C(C)C)N(C)C)[C@H]1Cc1c[nH]c2ccccc12
[1]
  CC50: > 600 nM

## COC1=CC(=O)N(C(=O)/C=C/[C@H](CCc2ccccc2)NC(=O)[C@H](CC(C)C)NC(=O)[C@H](CC(C)C)NC(=O)C2CCN(C)CC2)C1Cc1ccc(-c2ccccc2)cc1 (some centres undefined)
[1]
  CC50: > 600 nM
Cruzipain
  IC50: 0.4 nM
Trypanosoma cruzi
  EC50: 222 nM

## CC[C@H](C)[C@@H](C(=O)O[C@@H](CC(C)C)C(=O)N[C@@H](CC(C)C)C(=O)N[C@@H](C)/C=C/C(=O)N1C(=O)C=C(OC)[C@@H]1C)N(C)C [GALLINAMIDE A]
[1]
  CC50: > 600 nM
Cruzipain
  IC50: 1.3 nM

## COC1=CC(=O)N(C(=O)/C=C/[C@H](CCc2ccccc2)NC(=O)[C@H](CC(C)C)NC(=O)[C@H](CC(C)C)NC(=O)[C@H](C(C)C)N(C)C)[C@H]1Cc1c[nH]c2ccccc12
[1]
  CC50: > 600 nM

## COC1=CC(=O)N(C(=O)/C=C/[C@H](C)NC(=O)[C@H](CC(C)C)NC(=O)[C@H](Cc2ccccc2)NC(=O)[C@H](C(C)C)N(C)C)[C@H]1Cc1c[nH]c2ccccc12
[1]
  CC50: > 600 nM

## COC1=CC(=O)N(C(=O)/C=C/[C@@H](CCc2ccccc2)NC(=O)[C@H](CC(C)C)NC(=O)[C@H](CC(C)C)NC(=O)[C@H](C(C)C)N(C)C)C1Cc1ccc(-c2ccc(OC)cc2)cc1 (some centres undefined)
[1]
  CC50: > 600 nM
Cruzipain
  IC50: 0.28 nM
Trypanosoma cruzi
  EC50: 19 nM

## COC1=CC(=O)N(C(=O)/C=C/[C@H](C)NC(=O)[C@H](CC(C)C)NC(=O)[C@H](CC(C)C)NC(=O)C2CCN(C)CC2)[C@H]1Cc1c[nH]c2ccccc12
[1]
  CC50: > 600 nM

## COC1=CC(=O)N(C(=O)/C=C/[C@@H](CCc2ccccc2)NC(=O)[C@H](CC(C)C)NC(=O)[C@H](CC(C)C)NC(=O)[C@H](C(C)C)N(C)C)C1Cc1ccc(-c2ccc(C(F)(F)F)cc2)cc1 (some centres undefined)
[1]
  CC50: > 600 nM
Cruzipain
  IC50: 0.68 nM
Trypanosoma cruzi
  EC50: 78 nM

## CCCC[C@H]1O[C@@H]1/C=C/C=O
[1]
  CC50: > 600 nM
Cruzipain
  IC50: 29.7 nM

## COC1=CC(=O)N(C(=O)/C=C/[C@H](C)NC(=O)[C@H](CCc2ccccc2)NC(=O)[C@H](CC(C)C)NC(=O)[C@H](C(C)C)N(C)C)[C@H]1Cc1c[nH]c2ccccc12
[1]
  CC50: > 600 nM

## COC1=CC(=O)N(C(=O)/C=C/[C@H](C)NC(=O)[C@H](CC2CCCCC2)NC(=O)[C@H](CC2CCCCC2)NC(=O)[C@H](C(C)C)N(C)C)[C@H]1Cc1c[nH]c2ccccc12
[1]
  CC50: > 600 nM

## COC1=CC(=O)N(C(=O)/C=C/[C@H](CCc2ccccc2)NC(=O)[C@H](CC(C)C)NC(=O)[C@H](CC(C)C)NC(=O)C2CCN(C)CC2)C1Cc1ccc(-c2ccc(C(F)(F)F)cc2)cc1 (some centres undefined)
[1]
  CC50: > 600 nM
Cruzipain
  IC50: 0.79 nM
Trypanosoma cruzi
  EC50: 420 nM

## COC1=CC(=O)N(C(=O)/C=C/[C@H](CCc2ccccc2)NC(=O)[C@H](CC(C)C)NC(=O)[C@H](CC(C)C)NC(=O)C2CCN(C)CC2)C1Cc1ccc(-c2ccc3ccccc3c2)cc1 (some centres undefined)
[1]
  CC50: > 600 nM
Cruzipain
  IC50: 1.56 nM
Trypanosoma cruzi
  EC50: 521 nM

## O=C(Cn1ccnc1[N+](=O)[O-])NCc1ccccc1 [BENZNIDAZOLE]
[1]
  CC50: > 600 nM
Trypanosoma cruzi
  EC50: 1910 nM

## COC1=CC(=O)N(C(=O)/C=C/[C@@H](CCc2ccccc2)NC(=O)[C@H](CC(C)C)NC(=O)[C@H](CC(C)C)NC(=O)[C@H](C(C)C)N(C)C)C1Cc1ccc(-c2ccc(C#N)cc2)cc1 (some centres undefined)
[1]
  CC50: > 600 nM
Cruzipain
  IC50: 0.11 nM
Trypanosoma cruzi
  EC50: 19 nM

## COC1=CC(=O)N(C(=O)/C=C/[C@@H](NC(=O)[C@H](CC(C)C)NC(=O)[C@H](CC2CCCCC2)NC(=O)[C@H](C(C)C)N(C)C)C2CCCCC2)[C@H]1Cc1c[nH]c2ccccc12
[1]
  CC50: > 600 nM

## COC1=CC(=O)N(C(=O)/C=C/[C@H](CCc2ccccc2)NC(=O)[C@H](CC(C)C)NC(=O)[C@H](CC(C)C)NC(=O)C2CCN(C)CC2)C1Cc1ccc(-c2ccc(OC)cc2)cc1 (some centres undefined)
[1]
  CC50: > 600 nM
Cruzipain
  IC50: 0.26 nM
Trypanosoma cruzi
  EC50: 261 nM

## COC1=CC(=O)N(C(=O)/C=C/[C@H](C)NC(=O)[C@H](CC(C)C)NC(=O)[C@H](CC(C)C)NC(=O)[C@H](C(C)C)N(C)C)[C@H]1Cc1c[nH]c2ccccc12
[1]
  CC50: > 600 nM

## COC1=CC(=O)N(C(=O)/C=C/[C@H](C)NC(=O)[C@H](CC(C)C)NC(=O)[C@H](CC2CCCCC2)NC(=O)[C@H](C(C)C)N(C)C)[C@H]1Cc1c[nH]c2ccccc12
[1]
  CC50: > 600 nM

## COC1=CC(=O)N(C(=O)/C=C/[C@H](CCc2ccccc2)NC(=O)[C@H](CC(C)C)NC(=O)[C@H](CC(C)C)NC(=O)C2CCN(C)CC2)C1Cc1ccc(-c2ccc(C#N)cc2)cc1 (some centres undefined)
[1]
  CC50: > 600 nM
Cruzipain
  IC50: 0.13 nM
Trypanosoma cruzi
  EC50: 423 nM

## COC1=CC(=O)N(C(=O)/C=C/[C@H](C)NC(=O)[C@H](CCc2ccccc2)NC(=O)[C@H](CC2CCCCC2)NC(=O)[C@H](C(C)C)N(C)C)[C@H]1Cc1c[nH]c2ccccc12
[1]
  CC50: > 600 nM

## COC1=CC(=O)N(C(=O)/C=C/[C@@H](CCc2ccccc2)NC(=O)[C@H](CC(C)C)NC(=O)[C@H](CC(C)C)NC(=O)[C@H](C(C)C)N(C)C)C1Cc1ccc(-c2ccccc2)cc1 (some centres undefined)
[1]
  CC50: > 600 nM
Cruzipain
  IC50: 0.12 nM
Trypanosoma cruzi
  EC50: 13 nM
